Measurements taken from patent publication US20240131040A1, “COMPOSITIONS AND METHODS RELATED TO CANNABINOID ANIONS” (NATURAL EXTRACTION SYSTEMS, LLC, priority 2021, published 2024).

Columns and labels:
[1] = test system: individual who presented with cancer pain caused by throat cancer; experiment: Case report: cancer pain; format: in vivo, humans; details: water containing the anion, ingested
Description: An individual who presented with cancer pain caused by throat cancer was administered water containing the cannabidiol anion (2-[6-isopropenyl-3-methylcyclohex-2-enyl]-3-hydroxy-5-pentylphenolate).

[2] = test system: individual who presented with back pain associated with driving for prolonged periods of time; experiment: Case report: acute back pain; format: in vivo, humans; details: glycerol tincture, ingested
Description: An individual who presented with back pain associated with driving for prolonged periods of time was administered a glycerol tincture containing the cannabidiol anion.

[3] = test system: individual who presented with chronic back pain associated with standing; experiment: Case report: chronic back pain; format: in vivo, humans; details: glycerol tincture, ingested
Description: An individual who presented with chronic back pain associated with standing was administered a glycerol tincture containing the cannabidiol anion.

[4] = test system: individual who presented with hip pain associated with sitting; experiment: Case report: chronic hip pain; format: in vivo, humans; details: glycerol tincture, ingested
Description: An individual who presented with hip pain associated with sitting was administered a glycerol tincture containing the cannabidiol anion.

[5] = test system: individual with hip pain and lower back pain associated with spinal fusion surgery; experiment: Case report: post laminectomy syndrome; format: in vivo, humans; details: glycerol tincture, ingested
Description: An individual with hip pain and lower back pain associated with spinal fusion surgery was administered a glycerol tincture containing the cannabidiol anion.

[6] = test system: individual who presented with knee pain associated with inflammation caused by trauma from a fall; experiment: Case report: knee pain; format: in vivo, humans; details: glycerol tincture, ingested
Description: An individual who presented with knee pain associated with inflammation caused by trauma from a fall was administered a glycerol tincture containing the cannabidiol anion.

[7] = test system: individual with arthritis; experiment: Case report: arthritis; format: in vivo, humans; details: glycerol tincture
Description: An individual who was unable to fill […] hydroxychloroquine prescription to treat the arthritis during the COVID-19 pandemic was administered a glycerol tincture containing the cannabidiol anion.

[8] = test system: individual who presented with chronic pain; experiment: Case report: chronic pain; format: in vivo, humans; details: glycerol tincture
Description: An individual who presented with chronic pain was administered a glycerol tincture containing the cannabidiol anion.

individuals with anxiety = experiment: Case reports: anxiety; format: in vivo, humans
Description: An individual was administered a beverage containing the cannabidiol anion prior to driving to an airport to catch a flight that was scheduled to leave within thirty minutes of the arrival at the airport.
An individual who suffers from chronic anxiety was administered a glycerol tincture containing the cannabigerol anion.

[9] = test system: individual who presented with social anxiety associated with presenting at business meetings; experiment: Case report: social anxiety; format: in vivo, humans; details: beverage containing the anion, before presenting
Description: An individual who presented with social anxiety associated with presenting at business meetings was administered a beverage containing the cannabidiol anion before presenting.

[10] = test system: individual who presented with cramping and restless legs syndrome; experiment: Case report: cramping and restless legs syndrome; format: in vivo, humans; details: glycerol tincture before sleep
Description: An individual who presented with cramping and restless legs syndrome was administered a glycerol tincture containing the cannabidiol anion before sleep.

[11] = test system: dog that suffers from chronic seizures; experiment: Case report: epilepsy in a dog; format: in vivo; details: glycerol tincture immediately after the onset of a seizure
Description: A dog that suffers from chronic seizures was administered a glycerol tincture containing the cannabidiol anion immediately after the onset of a seizure.

[12] = test system: individual who presented with chronic insomnia; experiment: Case report: insomnia; format: in vivo, humans; details: glycerol tincture before sleep
Description: An individual who presented with chronic insomnia was administered a glycerol tincture containing the cannabigerol anion before sleep.

[13] = test system: individual who presented with Crohn's disease; experiment: Case report: Crohn's disease; format: in vivo, humans; details: glycerol tincture
Description: An individual who presented with Crohn's disease was administered a glycerol tincture containing the cannabigerol anion.

[14] = test system: individual who presented with Inflammatory Bowel Disease; experiment: Case report: Inflammatory Bowel Disease; format: in vivo, humans; details: glycerol tincture
Description: An individual who presented with Inflammatory Bowel Disease was administered a glycerol tincture containing the cannabigerol anion.

[15] = test system: individual who presented with plaque psoriasis; experiment: Case report: plaque psoriasis; format: in vivo, humans; details: glycerol formulation, topical
From the text: An individual who presented with plaque psoriasis topically administered a glycerol formulation containing the cannabigerol anion.

[16] = test system: individual who presented with peripheral neuropathy; experiment: Case report: peripheral neuropathy; format: in vivo, humans; details: glycerol formulation, topical
From the text: An individual who presented with peripheral neuropathy topically administered a glycerol formulation containing the cannabigerol anion.

Female Sabra mice = experiment: Zymosan A right hind paw arthritis model: paw swelling (calipers) and pain (Von Frey); format: in vivo; details: relative to vehicle control groups, 1-64 mg/kg/day oral gavage for one month; for right hind paw inflammation: swelling at 1, 2, 6, 12, 24 hours after zymosan A; for right hind paw pain: Von Frey hair aesthesiometer
Description: (§1) Female Sabra mice are administered either vehicle or a cannabinoid. The cannabinoid is selected from 2-geranyl-5-pentylbenzene-1,3-diol (“cannabigerol”) and 2-geranyl-5-propylbenzene-1,3-diol (“cannabigerovarin”). The cannabinoid is administered at an amount of either 1, 2, 4, 8, 16, 32, or 64 milligrams cannabinoid per kilogram mouse body weight per day by oral gavage beginning when they are two months old.
(§2) Following one month of administration of either vehicle or a cannabinoid, 30 microliters of a 2 percent weight-by-volume suspension of zymosan A in saline is injected into each right hind paw of the mice. Inflammation is measured with calipers to determine right hind paw swelling at 1, 2, 6, 12, and 24 hours following the zymosan A injection relative to left hind paw. Pain is measured with a Von Frey hair aesthesiometer to determine right hind paw sensitivity to force relative to left hind paw. Serum TNF-alpha concentration is measured at 24 hours by enzyme-linked immunosorbent assay.

TNF-alpha = experiment: Serum TNF-alpha by enzyme-linked immunosorbent assay in zymosan A paw model; format: in vivo, mice; details: relative to vehicle control groups; 24 hours after zymosan A; 1-64 mg/kg/day oral gavage
Description: as §1, §2

[17] = test system: neutrophil-mediated inflammation; experiment: Zymosan A knee arthritis model: neutrophil elastase imaging and transcript RT-PCR; format: in vivo; details: male C57BL/6J mice; for imaged right knee neutrophil elastase: relative to vehicle control group, imaged 4 hours post-injection, 1-64 mg/kg/day oral gavage; for adamts4 transcripts / myeloperoxidase transcripts / neutrophil elastase transcripts: relative to vehicle control groups, real-time PCR
Description: Male C57BL/6J mice are administered either vehicle or a cannabinoid. The cannabinoid is selected from cannabigerol and cannabigerovarin. The cannabinoid is administered at an amount of either 1, 2, 4, 8, 16, 32, or 64 milligrams cannabinoid per kilogram mouse body weight per day by oral gavage beginning when they are two months old.
Following one month of administration, mice are anesthetized with isoflurane and then 180 micrograms of zymosan A in saline is injected into the right knee of each mouse. Equivalent volumes of saline are injected into the left knee of each mouse. Mice are then injected with Neutrophil Elastase 680 FAST imaging probe (Perkin Elmer, Massachusetts, United States) and imaged 4 hours post-injection using an IVIS Spectrum In Vivo Imaging System (Perkin Elmer) to measure neutrophil-mediated inflammation. Mouse RNA is extracted and purified, and then relative adamts4 transcript, relative neutrophil elastase transcript, and relative myeloperoxidase transcript concentrations are measured following reverse transcription using real-time polymerase chain reactions.

Mice fed a high-fat diet = experiment: Diet-induced obesity model: body weight, serum ALT/AST, liver steatosis; format: in vivo; details: 1-64 mg/kg/day oral gavage for two months; for liver steatosis: hematoxylin and eosin staining
Description: Mice are fed either a control standard diet or a high-fat diet beginning when they are two months old. The mice are concomitantly administered either vehicle or a cannabinoid selected from cannabigerol and cannabigerovarin at an amount of either 1, 2, 4, 8, 16, 32, or 64 milligrams cannabinoid per kilogram mouse body weight per day by oral gavage.
Mouse body weights are measured daily. The mice are sacrificed when they are four months old following two months of the diet, cannabinoid (or vehicle), and weighing. Serum alanine aminotransferase (“ALT”) and serum aspartate aminotransferase (“AST”) are measured using a Reflotran Plus blood chemistry system (Roche, Switzerland). Mouse livers are fixed and then stained with hematoxylin and eosin to visualize liver steatosis.

| Structure (SMILES) | right hind paw inflammation (Female Sabra mice) | right hind paw pain (Female Sabra mice) | serum TNF-alpha concentration (TNF-alpha) | imaged right knee neutrophil elastase [17] | adamts4 transcripts [17] | myeloperoxidase transcripts [17] | neutrophil elastase transcripts [17] | body weight (Mice fed a high-fat diet) | serum ALT (Mice fed a high-fat diet) | serum AST (Mice fed a high-fat diet) | liver steatosis (Mice fed a high-fat diet) | further results |
| --- | --- | --- | --- | --- | --- | --- | --- | --- | --- | --- | --- | --- |
| C=C(C)C1CCC(C)=CC1c1c(O)cc(CCCCC)cc1O (stereo not shown) [cannabidiol anion, 2-[6-isopropenyl-3-methylcyclohex-2-enyl]-3-hydroxy-5-pentylphenolate] | – | – | – | – | – | – | – | – | – | – | – | throat pain (self-reported) [1]: notable alleviation of throat pain within minutes of ingestion; back pain (self-reported) [2]: notable alleviation of the back pain within minutes of ingestion; back pain (self-reported) [3]: notable alleviation of the back pain within minutes of ingestion; hip pain (self-reported) [4]: notable alleviation of the hip pain within minutes of ingestion; hip pain and lower back pain (self-reported) [5]: notable alleviation of hip pain and lower back pain within minutes of ingestion; mobility and knee pain (self-reported) [6]: improved mobility and alleviation of knee pain within minutes of ingestion; treatment of arthritis compared with hydroxychloroquine (self-reported) [7]: more effective at treating their arthritis than hydroxychloroquine; chronic pain (self-reported) [8]: alleviation of pain that significantly improved their standard of living; anxiety during drive to airport (self-reported) (individuals with anxiety; beverage containing the anion, before driving): notable absence of anxiety; social anxiety and performance during business meeting (self-reported) [9]: reduced anxiety and improved performance during the business meeting; sleep quality (self-reported) [10]: significant improvement in sleep quality; seizures (reported by owners) [11]: both instantaneously and consistently arrested multiple seizures in the dog |
| CCCCCc1cc(O)c(C/C=C(\C)CCC=C(C)C)c(O)c1 [cannabigerol anion, 2-geranyl-3-hydroxy-5-pentylphenolate] | – | – | – | – | – | – | – | – | – | – | – | chronic anxiety symptoms (self-reported) (individuals with anxiety; glycerol tincture): significant improvement in their anxiety symptoms; onset and quality of sleep (self-reported) [12]: significant improvement in the onset and quality of their sleep; symptoms of Crohn's disease (self-reported) [13]: significant improvement in their symptoms of Crohn's disease; symptoms of Inflammatory Bowel Disease (self-reported) [14]: significant improvement in their symptoms of Inflammatory Bowel Disease; plaque psoriasis symptoms (self-reported) [15]: significant improvement in their plaque psoriasis symptoms; peripheral neuropathy symptoms (self-reported) [16]: significant improvement in their peripheral neuropathy symptoms |
| CCCCCc1cc(O)c(C/C=C(\C)CCC=C(C)C)c(O)c1 [cannabigerol, 2-geranyl-5-pentylbenzene-1,3-diol] | dose-dependent reduction | dose-dependent reduction | dose-dependent reduction | dose-dependent reduction | dose-dependent reduction | dose-dependent reduction | dose-dependent reduction | dose-dependent reduction | dose-dependent reduction | dose-dependent reduction | dose-dependent reduction | – |
| CCCc1cc(O)c(C/C=C(\C)CCC=C(C)C)c(O)c1 [cannabigerovarin, 2-geranyl-5-propylbenzene-1,3-diol] | dose-dependent reduction | dose-dependent reduction | dose-dependent reduction | dose-dependent reduction | dose-dependent reduction | dose-dependent reduction | dose-dependent reduction | dose-dependent reduction | dose-dependent reduction | dose-dependent reduction | dose-dependent reduction | – |
